Measurements taken from patent US5364944A, “Substituted benzoylbenzene-, biphenyl- and 2-oxazole- alkanoic acid compounds” (American Home Products Corporation, priority 1993, dated 1994).

Assays:
[1] = tested on: biosynthesis of LTB4 by isolated human neutrophils; test: Inhibition of LTB4 biosynthesis by isolated human neutrophils (PMN); assay type: cell-based; conditions: A23187 stimulated human PMN; for inhibition at 2.5 µM: Neutrophil, read-out: % Inhibition of LTB4 Synthesis
Protocol: The ability of the compounds of the invention to inhibit the biosynthesis of LTB4 by isolated human neutrophils is evaluated in the following assay, which is carried out in this manner.
A leukocyte enriched blood sample obtained from a healthy donor is procured by leukophoresis using a Haemonetics model 30+ blood processor (Biological Specialties, Inc., Lansdale, Pa.). The top "platelet-rich" layer is removed after a low speed spin (35×g, 15 min, 25° C.) of the sample. The remaining cell suspension is centrigued (400×g, 10 min, 25° C.) to sediment the remaining cells. The supernatant is discarded and the cell pellet resuspended in 120 ml HBSS (without Ca^++ /Mg++). The cell suspension is subjected to ficoll-hypaque sedimentation (Histopaque 1077, 400×g, 30 min, 25° C.). Contaminating erythrocytes are lysed by hypotonic shock (1 min). The cells are then washed once with 40 ml of HBSS and resuspended with HBS S (without Ca^++ /Mg^++) to a concentration of 2.5×10^7 cells/ml for further use. Greater than 95% purity is obtained as assessed by microscopic examination.
One ml of human PMN (2.5×10^7 cells/ml) is incubated with vehicle or drugs (10 μl) for 10 min at 30° C. After preincubation, an equal volume of HBSS (1 ml) containing 2.4 mM CaCl2, 6 μM calcium ionophore A23187 and 50 μCi[^3 H]-acetate is then incubated at 30° C. for 15 minutes. An aliquot (100 μl) of the reaction mixture is taken out and mixed with 900 μl of 15% ethanol. LTB4 is extracted by using solid phase extraction on reverse phase C18 columns to remove excess [^3 H]-acetate and PAF. The C18 column is prewashed once with 2 ml of ethanol and water. The sample aliquot is acidified with 0.1 N HCl to pH3 before applying to the column. The column is then washed with 2 ml of water followed by 2 ml of 15% ethanol and 2 ml of petroleum ether to remove excess labeled acetate. The sample is eluted with 2 ml of ethyl acetate. The collected samples are dried with nitrogen and resuspended in 0.5 ml RIA buffer. The quantity of LTB4 in the sample is obtained from RIA determination.
Data presented are the mean +/- s.d. of the values relative to control A23187 stimulated cells for each experiment assayed in triplicate. Percent inhibition when used is calculated as:
% Inhibition=100-[(×.div.Control )×100]
Dose response analysis is performed by non-linear regression analysis for curve fitting and IC50 determination.

[2] = tested on: synthesis of the arachidonic acid cyclooxygenase oxidation product PGE2 (rat PMN); test: Inhibition of cyclooxygenase product PGE2 synthesis by rat PMN; assay type: cell-based; conditions: negative values denote a potentiation of cyclooxygenase
Protocol: In this assay, the procedure of Example 41 is carried out as described. However, in order to determine cyclooxygenase activity, the samples are cochromatographed with authentic reference [^3 H]-PGE2.

TxB2 = test: Reverse passive Arthus pleurisy assay, inflammatory mediator release: TxB2; assay type: in vivo, rat (male Lewis); conditions: standard drugs; for ED50 TxB2: p.o., inflammatory mediator release, 5 min
Protocol: (§1) The compounds of the invention are further tested in the reverse passive Arthus pleurisy assay to evaluate their effectiveness in inflammatory mediator release and/or the fluid and cellular phases of an inflammatory response.
(§2) This assay is carried out as follows:
A reverse passive Arthus reaction is induced in the pleural cavity of male Lewis rats (150-200 g; fasted overnight prior to use) by the intravenous administration of bovine serum albumin (BSA; 4 mg/0.2 ml) followed 30 minutes later by the injection of rabbit anti-BSA (1 mg/0.2 ml; lyophilized IgG fraction; Organon Teknika, West Chester, Pa.) into the right pleural space under halothane anesthesia. Drugs or vehicle (0.5% Tween-80) control are administered orally in a volume of 1 ml/100 g body weight at 1 hour prior to the anti-BSA. Animals are sacrificed at either the time of peak eicosanoid production (i.e. 5 minutes after anti-BSA for immunoreactive TxB2 10 minutes for immunoreactive LTB4, 20 minutes for immunoreactive LTC4) or at the time of peak neutrophil infiltration (4 hours after anti-BSA) by CO2 inhalation. The pleural cavity is then exposed, the fluid exudate removed by gentle vacuum aspiration and the volume of exudate is recorded. […] Cell number is determined on a model ZBI Coulter counter. […]
Eicosanoids are quantitated by RIA according to the procedure specified by the RIA kit manufacturer (Advanced Magnetics, Cambridge, Mass.). […] Antibody-bound labeled eicosanoid is quantitated by counting in a liquid scintillation counter, and is correlated to concentration by a standard curve.
Inflammatory cells are expressed as 10^6 cells/ml, pleural exudate is expressed as ml of fluid, and the amount of eicosanoids in the pleural cavity is expressed as ng/ml of exudate. Mean ±S.E.M. is determined for each group. Percent inhibition (% I) of cell number, exudate volume and eicosanoid production is calculated for vehicle-treated control groups, and the responses in drug-treated rats are then expressed as the mean % I of the control. […]

[3] = tested on: 5-lipoxygenase in human whole blood; test: Inhibition of 5-lipoxygenase in human whole blood (LTB4); assay type: cell-based
Protocol: The assay of this Example measures the ability of the compounds tested to inhibit 5-lipoxygenase in human whole blood.
as §2
Blood is obtained in 50-100 ml quantities from male donors. White blood cell counts and differentials are made. Two ml of blood are placed in a 15 ml polypropylene test tube. Compounds are solubilized in dimethylsulfoxide and diluted 1:10 in 10% bovine serum albumin in phosphate buffered saline, pH 7.4 resulting in a final dimethylsulfoxide concentration of 0.1% in the blood. Then, compounds are added to the blood in a shaking water bath at 37° C. for 10 minutes prior to the addition of 30 μM calcium ionophore (A23187; Sigma). After ionophore administration, whole blood samples are mixed and incubated for 20 minutes at […] in a shaking water bath. Incubation is terminated by placing samples in an ice bath and immediately adding ethylene glycol-bis-(β-aminoethyl ether)-N,N,N',N'-tetraacetic acid (10 mM). Samples are mixed and centrifuged at 1200×g for 15 minutes at 4° C. Preparation of samples for evaluation by RIA or ELISA is carried out by the following protocol. Plasma is removed from sample tubes, placed in 15 ml polypropylene test tubes containing 8 ml methanol, and then vortexed to precipitate protein. Samples are stored at -70° C. overnight. The next day, samples are centrifuged at 200×g for 15 minutes at 4° C. to pellet the precipitate. Samples are dried in a Savant speed vac concentrator, reconstituted to original volume with ice cold RIA or ELISA buffer, and stored at -70° C. until assayed. The assay for eicosanoids (LTB4, TxB2, and PGE2) is performed as described by the manufacturer of the [^3 H]-RIA kit or ELISA kit (LTB4 -Amersham, TxB2 and PGE2 - Caymen Chemical).
The total eicosanoid level in 2 ml of blood is calculated and reported as ng/10^6 neutrophils. […] Drug effects are expressed as percent change from control values.
Compounds tested in vitro are solubilized in dimethylsulfoxide and diluted 1:10 in 10% bovine serum albumin in phosphate buffer saline resulting in a final dimethylsulfoxide concentration of 0.1% in the blood.

[4] = tested on: fluid and cellular phases of an inflammatory response; test: Reverse passive Arthus pleurisy assay, pleural inflammation (fluid exudation, cellular influx); assay type: in vivo, rat (male Lewis); conditions: for ED30 Fluid Exudation: p.o., pleural inflammation; for ED30 Fluid Exudation / % Inh Cellular Influx: standard drugs; for % Inh Cellular Influx: 8 mg/kg p.o.
Protocol: as §1, §2
(§3) A reverse passive Arthus reaction is induced in the pleural cavity of male Lewis rats (150-200 g; fasted overnight prior to use) by the intravenous administration of bovine serum albumin (BSA; 4 mg/0.2 ml) followed 30 minutes later by the injection of rabbit anti-BSA (1 mg/0.2 ml; lyophilized IgG fraction; Organon Teknika, West Chester, Pa.) into the right pleural space under halothane anesthesia. Drugs or vehicle (0.5% Tween-80) control are administered orally in a volume of 1 ml/100 g body weight at 1 hour prior to the anti-BSA. Animals are sacrificed at either the time of peak eicosanoid production (i.e. 5 minutes after anti-BSA for immunoreactive TxB2 10 minutes for immunoreactive LTB4, 20 minutes for immunoreactive LTC4) or at the time of peak neutrophil infiltration (4 hours after anti-BSA) by CO2 inhalation. The pleural cavity is then exposed, the fluid exudate removed by gentle vacuum aspiration and the volume of exudate is recorded. For the determination of cellular infiltration, the pleural cavity is rinsed with 3 ml of 0.1% EDTA in sterile saline, and the recovered wash is pooled with the exudate. Cell number is determined on a model ZBI Coulter counter. For determination of eicosanoid production, undiluted pleural exudate is microfuged and the supernatant is extracted with ethanol (8-10 times volume). Extracts are either stored at -20° C., or are evaporated to dryness under a stream of N2 and reconstituted in radioimmunoassay (RIA) buffer.
(§4) Inflammatory cells are expressed as 10^6 cells/ml, pleural exudate is expressed as ml of fluid, and the amount of eicosanoids in the pleural cavity is expressed as ng/ml of exudate. Mean ±S.E.M. is determined for each group. Percent inhibition (% I) of cell number, exudate volume and eicosanoid production is calculated for vehicle-treated control groups, and the responses in drug-treated rats are then expressed as the mean % I of the control. […] Exp. Ther., 96, 99-113 (1949).

LTB4 = test: Reverse passive Arthus pleurisy assay, inflammatory mediator release: LTB4; assay type: in vivo, rat (male Lewis); conditions: standard drugs; for % Inh LTB4: 4 mg/kg p.o.
Protocol: as §1, §2
as §3, with “Drugs or vehicle (0.5% Tween-80) control are administered orally in a volume of 1 ml/100 g body weight at 1 hour prior to the anti-BSA.” left out
Eicosanoids are quantitated by RIA according to the procedure specified by the RIA kit manufacturer (Advanced Magnetics, Cambridge, Mass.). Briefly, 100 μl of ^3 H-labeled eicosanoid and 100 μl of specific antibody are sequentially added to 100 μl of extracted pleural exudate in BGG -phosphate buffer which contains 0.01 M phosphate, 0.1% bovine gamma globulin and 0.1% sodium azide at pH 7.0. Antibody-bound eicosanoid is separated from unbound eicosanoid by the addition of 750 μl of dextran (0.4%)-coated charcoal (0.4% Norit A) containing 0.1% sodium azide. The mixture is centrifuged at 2000 RPM at 5° C. for 15 minutes to pellet the charcoal and adsorbed unbound eicosanoid. Antibody-bound labeled eicosanoid is quantitated by counting in a liquid scintillation counter, and is correlated to concentration by a standard curve.
as §4

In the case of `CC(c1cc2ccccc2s1)N(O)C(N)=O` (stereo not shown) [A-64,077, reference compound], the inhibition at 2.5 µM [1] is reported as 75.8%.

With `O=C(O)Cc1cccc(C(=O)c2ccc(OCc3ccc4ccccc4n3)cc2)c1` [Example 3, 3-[4-(2-Quinolinylmethoxy)benzoyl]benzene acetic acid] the inhibition at 0.5 µM ([2]; at 0.5 μM) was -8% and the inhibition at 10 µM ([2]; at 10 μM) was 8%.

With `C[C@H](C(=O)O)c1ccc2cc(OCc3ccc4ccccc4n3)ccc2c1.NC(CO)(CO)CO` [Wy-50,295-A] the “% Inh TxB2” value (TxB2; 75 mg/kg p.o.) was 0%.

In the case of `CC(C(=O)N(C)O)c1ccc(-c2ccc(OCc3nc4ccccc4n3C)cc2)cc1` (stereo not shown) [Example 23], the IC50 [3] is reported as 11.9 µM, the “% Inhibition of LTB4” value ([3]; at 25 μM) is reported as 32% and the inhibition at 2.5 µM [1] is reported as 99%.

For `C[C@@H]1C[C@H]2[C@@H]3CCC4=CC(=O)C=C[C@]4(C)[C@@]3(F)[C@@H](O)C[C@]2(C)[C@@]1(O)C(=O)CO` [Dexamethasone], the “ED30 Fluid Exudation” value [4] was 0.05 mg/kg.

With `COc1ccc2c(c1)c(CC(=O)O)c(C)n2C(=O)c1ccc(Cl)cc1` [Indomethacin] the “% Inh LTB4” value (LTB4) was 12%, the “% Inh Cellular Influx” value [4] was 19% and the ED30 ([4]; Rattus norvegicus, po, read-out: ED30 Fluid Exudation) was 2.5 mg/kg.

For `CN=C1CCN(c2cccc(C(F)(F)F)c2)N1` [BW540C, reference compound], the “ED50 LTB4” value (LTB4; p.o., inflammatory mediator release, 10 min) was 30 mg/kg and the “ED50 TxB2” value (TxB2) was 19 mg/kg.

In the case of `CN(O)C(=O)Cc1ccc(-c2ccc(OCc3nc4ccccc4s3)cc2)cc1` [Example 13, 4'-(Benzothiazolylmethoxy)-4-diphenyl-N-hydroxy-N-methyl-acetamide], the inhibition at 2.5 µM [1] is reported as 98.9%.

With `O=C(O)Cc1ccc(-c2ccc(OCc3nc4ccccc4s3)cc2)cc1` [Example 12, 4'-(Benzothiazolylmethoxyl)-4-diphenylacetic acid] the “% Inhibition of LTB4 Synthesis” value ([1]; at 2.5 μM) was “Inactive”.

With `COc1ccc2cc([C@H](C)C(=O)O)ccc2c1` [Naproxen] the “% Inh LTB4” value (LTB4) was 0%, the “ED50 TxB2” value (TxB2) was 0.24 mg/kg and the “% Inh Cellular Influx” value [4] was 29%. The “ED30 Fluid Exudation” value [4] was 3.9 mg/kg.
